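96-well plates; 48 h exposure; 5 concentrations. Endpoints by linear interpolation between flanking doses. Not reached: highest tested concentration assigned. GI50 is the concentration that inhibits growth by half.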 Activity calls are given as the source filed them. Rule as the data show it: active = GI50 up to about 1.1 µM and inactive = higher.
Tests used:
Test in all cases: NCI tumour cell line growth inhibition, 48 h
EKVX = system: EKVX
TK-10 = system: TK-10
CCRF-CEM = system: CCRF-CEM
SNB-75 = system: SNB-75
OVCAR-4 = system: OVCAR-4
KM12 = system: KM12
NCI-H226 = system: NCI-H226
SF-539 = system: SF-539
HCT-116 = system: HCT-116
SF-268 = system: SF-268
K562 = system: K562
MDA-MB-435 = system: MDA-MB-435
HCT-15 = system: HCT-15
MCF7 = system: MCF7
RXF 393 = system: RXF 393
COLO 205 = system: COLO 205
M14 = system: M14
MOLT-4 = system: MOLT-4
HOP-62 = system: HOP-62
SK-OV-3 = system: SK-OV-3

Measured: GI50

S=c1sscc1N1CCSc2ssc(=S)c21
47.5 µM: HCT-15
inactive: EKVX 16.6 µM | TK-10 24.8 µM | CCRF-CEM > 100 µM | SNB-75 14.5 µM | OVCAR-4 7.45 µM | KM12 > 100 µM | NCI-H226 67.8 µM | SF-539 42.3 µM | HCT-116 87.1 µM | SF-268 35.9 µM | K562 > 100 µM | MDA-MB-435 > 100 µM | MCF7 32.7 µM | RXF 393 47.3 µM | COLO 205 > 100 µM | M14 > 100 µM | MOLT-4 > 100 µM

Oc1ccc(/C=C/c2cc(O)cc(O)c2)cc1 [RESVERATROL]
> 100 µM: HCT-15
inactive: EKVX 81.5 µM | TK-10 > 100 µM | SNB-75 95.1 µM | OVCAR-4 > 100 µM | KM12 31.9 µM | NCI-H226 39.9 µM | SF-539 29.6 µM | HOP-62 92 µM | SF-268 > 100 µM | MDA-MB-435 70.1 µM | SK-OV-3 79.3 µM | MCF7 67 µM | RXF 393 40.9 µM | M14 49.8 µM | MOLT-4 7.23 µM

CCOC(=O)c1c(-c2ccc(Cl)cc2)c(C#N)c(=S)n(C2OC(CO)C(O)C(O)C2O)c1-c1ccccc1 (centres undefined)
29.9 µM: HCT-15
inactive: TK-10 33.8 µM | CCRF-CEM 18.1 µM | SNB-75 27.9 µM | OVCAR-4 33.5 µM | KM12 34.5 µM | SF-539 19.5 µM | HOP-62 20.3 µM | HCT-116 18.7 µM | SF-268 28.1 µM | K562 19.5 µM | MDA-MB-435 21.3 µM | SK-OV-3 28.3 µM | MCF7 22.3 µM | RXF 393 23 µM | COLO 205 30.1 µM | M14 19.7 µM | MOLT-4 13.5 µM

Nc1nc(-c2ccccc2)nc2oc(-c3cccs3)nc12
> 100 µM: HCT-15
inactive: EKVX > 100 µM | TK-10 > 100 µM | CCRF-CEM > 100 µM | SNB-75 > 100 µM | KM12 > 100 µM | NCI-H226 > 100 µM | SF-539 > 100 µM | HOP-62 > 100 µM | HCT-116 > 100 µM | SF-268 > 100 µM | K562 > 100 µM | MDA-MB-435 > 100 µM | MCF7 > 100 µM | RXF 393 > 100 µM | COLO 205 > 100 µM | M14 > 100 µM | MOLT-4 > 100 µM

CCCCc1ccc(Nc2cc(=O)n(C)c(=O)[nH]2)cc1
inactive: EKVX > 100 µM | TK-10 > 100 µM | SNB-75 > 100 µM | OVCAR-4 32.8 µM | KM12 49.4 µM | NCI-H226 > 100 µM | SF-539 84.3 µM | HOP-62 > 100 µM | HCT-116 72.6 µM | SF-268 64.4 µM | K562 85.7 µM | MDA-MB-435 > 100 µM | SK-OV-3 > 100 µM | MCF7 22.9 µM | RXF 393 > 100 µM | COLO 205 > 100 µM | M14 > 100 µM
93.1 µM: HCT-15

C=CCn1c(=O)c(Br)nn(CCOCP(=O)(OCC)OCC)c1=O
inactive: EKVX > 100 µM | CCRF-CEM > 100 µM | SNB-75 > 100 µM | KM12 > 100 µM | NCI-H226 > 100 µM | SF-539 > 100 µM | HOP-62 > 100 µM | SF-268 > 100 µM | K562 > 100 µM | MDA-MB-435 > 100 µM | MCF7 > 100 µM | RXF 393 > 100 µM | COLO 205 > 100 µM | M14 > 100 µM | MOLT-4 > 100 µM
> 100 µM: HCT-15

— ChEMBL document CHEMBL1201862, “PubChem BioAssay data set” (2004)
